Numbered stars: 1 amine (or outer) side, 2 acyl side, 3 side chain; on linkers, the order of the positions; unused ones are H or OH. Square brackets hold non-standard residues; d marks the D form. Peptide text beside a SMILES is read from it. * marks the point of attachment. Phe(3,4-Cl2) = N[C@@H](Cc1ccc(Cl)c(Cl)c1)C(=O)O; dOrn(Me2) = CN(C)CCC[C@@H](N)C(=O)O; X2 = O=C([C@H]1CCCN([*:1])C1)[*:2]; Hyp = O=C(O)[C@@H]1C[C@@H](O)CN1; NHcycloheptyl = C1CCCC(N*)CC1; NMeL = CN[C@@H](CC(C)C)C(=O)O; dOrn = NCCC[C@@H](N)C(=O)O; Octanoyl = CCCCCCCC(=O)*

This assay has as its target T1, NPR-B (Homo sapiens, UniProt P20594).
T1 construct: a functional assay using endogenously NPR-B expressing GTM-3 cells; endogenous in cells; host or cells: GTM-3 (human glaucoma trabecular meshwork cells)
T1 sequence (P20594 23-1047): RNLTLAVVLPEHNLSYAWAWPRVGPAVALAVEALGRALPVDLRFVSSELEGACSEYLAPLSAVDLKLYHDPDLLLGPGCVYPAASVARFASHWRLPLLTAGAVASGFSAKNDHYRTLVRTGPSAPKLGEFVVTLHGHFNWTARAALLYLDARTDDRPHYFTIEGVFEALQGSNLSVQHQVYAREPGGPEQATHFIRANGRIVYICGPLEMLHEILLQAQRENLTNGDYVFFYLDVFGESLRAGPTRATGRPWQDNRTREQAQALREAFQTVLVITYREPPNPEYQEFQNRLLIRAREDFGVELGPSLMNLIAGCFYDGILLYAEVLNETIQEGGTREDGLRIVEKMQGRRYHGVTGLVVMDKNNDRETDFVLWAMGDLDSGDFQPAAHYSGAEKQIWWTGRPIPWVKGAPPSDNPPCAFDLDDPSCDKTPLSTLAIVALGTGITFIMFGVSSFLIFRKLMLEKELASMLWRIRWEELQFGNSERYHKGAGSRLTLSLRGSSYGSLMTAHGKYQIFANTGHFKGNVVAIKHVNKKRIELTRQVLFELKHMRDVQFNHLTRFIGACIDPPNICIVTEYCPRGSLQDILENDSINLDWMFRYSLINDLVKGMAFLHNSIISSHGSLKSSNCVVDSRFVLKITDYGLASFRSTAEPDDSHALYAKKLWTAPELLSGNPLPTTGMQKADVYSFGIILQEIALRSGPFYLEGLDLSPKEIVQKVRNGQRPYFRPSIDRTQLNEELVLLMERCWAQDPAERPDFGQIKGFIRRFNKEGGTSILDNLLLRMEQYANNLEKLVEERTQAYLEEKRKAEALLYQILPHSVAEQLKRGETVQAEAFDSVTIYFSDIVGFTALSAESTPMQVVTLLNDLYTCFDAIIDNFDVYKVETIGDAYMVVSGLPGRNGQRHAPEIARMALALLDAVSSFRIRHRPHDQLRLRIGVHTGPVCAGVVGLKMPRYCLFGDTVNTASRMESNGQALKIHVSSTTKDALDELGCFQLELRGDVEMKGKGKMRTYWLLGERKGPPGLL
Briefly: NPR-B induced production of cyclic GMP in human glaucoma trabecular meshwork cells (GTM-3). The class given is cell-based. Conditions: group by EC50 and Emax (CNP = 100%); Table 4; read-out: Activity (group), NPR-B activation assayed with GTM-3 cells.
As to `CCCCCCCC(=O)N1CCC[C@H](C(=O)N[C@@H](Cc2ccccc2)C(=O)N[C@H](CCCN)C(=O)N[C@@H](CC(C)C)C(=O)N2C[C@H](O)C[C@H]2C(=O)N(C)[C@@H](CC(C)C)C(=O)N[C@@H](CC(=O)O)C(=O)N[C@@H](CCCNC(=N)N)C(=O)N[C@H](C(N)=O)[C@@H](C)CC)C1` [JAL-1265, Occ-Sni-Phe-orn-Leu-Hyp-Nml-Asp-Arg-Ile-NH2] (Octanoyl-[X2]F[dOrn]L[Hyp][NMeL]DRI-NH2), the EC50 is less than 1 µM.

With `CCCCCCCC(=O)N[C@H](C)C(=O)N(C)[C@@H](Cc1ccccc1)C(=O)N[C@H](CC(C)C)C(=O)N[C@@H](CC(C)C)C(=O)N1C[C@H](O)C[C@H]1C(=O)N(C)[C@@H](CC(C)C)C(=O)N[C@@H](CC(=O)O)C(=O)N[C@@H](CCCNC(=N)N)C(=O)N[C@H](C(N)=O)[C@@H](C)CC` [JAL-1267, Occ-ala-Nmf-leu-Leu-Hyp-Nml-Asp-Arg-Ile-NH2] (HELM PEPTIDE1{[CCCCCCCC(=O)[*:2]].[dA].[meF].[dL].L.[Hyp].[meL].D.R.I.[am]}$$$$V2.0), the EC50 is less than 1 µM. In the case of `CCCCCCCC(=O)N1CCC[C@H](C(=O)N[C@@H](Cc2ccc(Cl)c(Cl)c2)C(=O)N[C@H](CC(C)C)C(=O)N[C@@H](CC(C)C)C(=O)N2C[C@H](O)C[C@H]2C(=O)N(C)[C@@H](CC(C)C)C(=O)N[C@@H](CC(=O)O)C(=O)N2CCC[C@H]2C(=O)NC2CCCCCC2)C1` [JAL-1599, Occ-Sni-Eaa-leu-Leu-Hyp-Nml-Asp-Pro-Che] (Octanoyl-[X2][Phe(3,4-Cl2)][dL]L[Hyp][NMeL]DP-NHcycloheptyl) it was less than 1 µM; in that of `CCCCCCCC(=O)N1CCC[C@H](C(=O)N[C@@H](Cc2ccccc2)C(=O)N[C@H](CC(C)C)C(=O)N[C@@H](CC(C)C)C(=O)N2C[C@H](O)C[C@H]2C(=O)N(C)[C@@H](CC(C)C)C(=O)N[C@@H](CC(=O)O)C(=O)N[C@@H](CCCNC(=N)N)C(=O)NC2CCCCCC2)C1` [JAL-1680, Occ-Sni-Phe-leu-Leu-Hyp-Nml-Asp-Arg-Che] (Octanoyl-[X2]F[dL]L[Hyp][NMeL]DR-NHcycloheptyl), less than 1 µM; in that of `CCCCCCCC(=O)N1CCCC[C@@H]1C(=O)N(C)[C@@H](Cc1ccccc1)C(=O)N[C@H](CCCNC(=N)N)C(=O)N[C@@H](CC(C)C)C(=O)N1CCC[C@H]1C(=O)N(C)[C@@H](CC(C)C)C(=O)N[C@@H](CC(=O)O)C(=O)N[C@@H](CCCNC(=N)N)C(=O)N[C@H](C(N)=O)[C@@H](C)CC` [JAL-1077, Occ-pip-Nmf-arg-Leu-Pro-Nml-Asp-Arg-Ile-NH2] (HELM PEPTIDE1{[CCCCCCCC(=O)[*:2]].[O=C([C@H]1CCCCN1[*:1])[*:2]].[meF].[dR].L.P.[meL].D.R.I.[am]}$$$$V2.0), less than 1 µM.

Consider `CCCCCCCC(=O)N1CCC[C@H](C(=O)N[C@@H](Cc2ccccc2)C(=O)N[C@H](CCCN(C)C)C(=O)N[C@@H](CC(C)C)C(=O)N2C[C@H](O)C[C@H]2C(=O)N(C)[C@@H](CC(C)C)C(=O)N[C@H](C(=O)N[C@@H](CCCNC(=N)N)C(=O)N[C@H](C(N)=O)[C@@H](C)CC)C(C)C)C1` [JAL-1782, Occ-Sni-Phe-orn(Me2)-Leu-Hyp-Nml-Val-Arg-Ile-NH2] (Octanoyl-[X2]F[dOrn(Me2)]L[Hyp][NMeL]VRI-NH2), for which the EC50 was less than 1 µM. Turning to `CCCCCCCC(=O)N[C@H](C)C(=O)N[C@@H](Cc1ccccc1)C(=O)N[C@H](CC(C)C)C(=O)N[C@@H](CC(C)C)C(=O)N1C[C@H](O)C[C@H]1C(=O)N(C)[C@@H](CC(C)C)C(=O)N[C@H](C(=O)N[C@@H](CCCNC(=N)N)C(=O)N[C@H](C(N)=O)[C@@H](C)CC)C(C)C` [JAL-1332, Occ-ala-Phe-leu-Leu-Hyp-Nml-Val-Arg-Ile-NH2] (HELM PEPTIDE1{[CCCCCCCC(=O)[*:2]].[dA].F.[dL].L.[Hyp].[meL].V.R.I.[am]}$$$$V2.0), the EC50 is less than 1 µM.

These data come from US9822147B2, “Methods of treating ophthalmic diseases using NPR-B agonists” (priority 2009, dated 2017).
